Experiment [1] in a line: Cytotoxicity against human H460 cells after 72 hrs by MTT assay. As to conditions: NCI-H460, 72 h.
The subject of another experiment is HT-29. The experiment can be described thus: Cytotoxicity against human HT-29 cells after 72 hrs by MTT assay. The conditions noted are these: HT-29, 72 h.
Experiment [2] in a line: Cytotoxicity against human MKN45 cells after 72 hrs by MTT assay. As to conditions: MKN-45, 72 h.
The next experiment has as its system MDA-MB-231. The experiment can be described thus: cells. As to conditions: Homo sapiens, MDA-MB-231, 72 h.
The target of experiment [3] is Epidermal growth factor receptor (Homo sapiens, UniProt P00533). The experiment can be described thus: Inhibition of EGFR (unknown origin) after 30 mins using poly (Glu,Tyr)4:1 substrate.
Epidermal growth factor receptor, sequence (P00533 whole entry): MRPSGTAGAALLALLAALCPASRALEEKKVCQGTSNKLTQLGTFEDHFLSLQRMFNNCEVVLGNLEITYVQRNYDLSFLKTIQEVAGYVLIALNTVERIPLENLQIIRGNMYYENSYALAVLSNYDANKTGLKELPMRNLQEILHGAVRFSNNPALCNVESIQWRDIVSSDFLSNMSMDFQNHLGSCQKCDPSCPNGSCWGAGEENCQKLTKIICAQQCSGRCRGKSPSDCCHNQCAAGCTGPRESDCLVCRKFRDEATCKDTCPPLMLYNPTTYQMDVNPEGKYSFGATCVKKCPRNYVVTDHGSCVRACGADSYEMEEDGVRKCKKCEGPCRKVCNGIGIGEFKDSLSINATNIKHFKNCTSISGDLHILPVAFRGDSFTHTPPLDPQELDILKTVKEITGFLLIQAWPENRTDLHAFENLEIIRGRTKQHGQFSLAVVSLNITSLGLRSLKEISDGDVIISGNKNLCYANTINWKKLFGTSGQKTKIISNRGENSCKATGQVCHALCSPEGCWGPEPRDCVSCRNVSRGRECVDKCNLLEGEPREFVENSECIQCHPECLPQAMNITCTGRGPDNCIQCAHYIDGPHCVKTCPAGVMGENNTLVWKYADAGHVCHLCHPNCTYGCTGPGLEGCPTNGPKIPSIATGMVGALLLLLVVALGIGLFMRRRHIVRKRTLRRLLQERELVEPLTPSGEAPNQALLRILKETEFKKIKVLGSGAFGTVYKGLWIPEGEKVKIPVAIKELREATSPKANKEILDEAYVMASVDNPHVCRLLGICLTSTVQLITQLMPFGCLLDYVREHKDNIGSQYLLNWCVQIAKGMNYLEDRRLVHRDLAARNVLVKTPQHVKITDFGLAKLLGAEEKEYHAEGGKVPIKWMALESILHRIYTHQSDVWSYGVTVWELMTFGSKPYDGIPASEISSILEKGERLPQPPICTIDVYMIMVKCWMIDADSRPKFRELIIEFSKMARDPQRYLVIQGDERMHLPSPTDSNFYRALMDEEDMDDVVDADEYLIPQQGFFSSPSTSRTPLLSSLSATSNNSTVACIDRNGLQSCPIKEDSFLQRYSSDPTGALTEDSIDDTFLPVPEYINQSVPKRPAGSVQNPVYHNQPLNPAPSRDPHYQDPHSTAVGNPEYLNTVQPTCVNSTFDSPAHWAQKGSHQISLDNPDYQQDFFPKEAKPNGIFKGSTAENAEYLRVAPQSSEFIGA
Experiment [4] deals with Hepatocyte growth factor receptor (Homo sapiens, UniProt P08581). The experiment can be described thus: Inhibition of c-Met (unknown origin) after 30 mins using poly (Glu,Tyr)4:1 substrate.
Hepatocyte growth factor receptor, sequence (P08581 whole entry): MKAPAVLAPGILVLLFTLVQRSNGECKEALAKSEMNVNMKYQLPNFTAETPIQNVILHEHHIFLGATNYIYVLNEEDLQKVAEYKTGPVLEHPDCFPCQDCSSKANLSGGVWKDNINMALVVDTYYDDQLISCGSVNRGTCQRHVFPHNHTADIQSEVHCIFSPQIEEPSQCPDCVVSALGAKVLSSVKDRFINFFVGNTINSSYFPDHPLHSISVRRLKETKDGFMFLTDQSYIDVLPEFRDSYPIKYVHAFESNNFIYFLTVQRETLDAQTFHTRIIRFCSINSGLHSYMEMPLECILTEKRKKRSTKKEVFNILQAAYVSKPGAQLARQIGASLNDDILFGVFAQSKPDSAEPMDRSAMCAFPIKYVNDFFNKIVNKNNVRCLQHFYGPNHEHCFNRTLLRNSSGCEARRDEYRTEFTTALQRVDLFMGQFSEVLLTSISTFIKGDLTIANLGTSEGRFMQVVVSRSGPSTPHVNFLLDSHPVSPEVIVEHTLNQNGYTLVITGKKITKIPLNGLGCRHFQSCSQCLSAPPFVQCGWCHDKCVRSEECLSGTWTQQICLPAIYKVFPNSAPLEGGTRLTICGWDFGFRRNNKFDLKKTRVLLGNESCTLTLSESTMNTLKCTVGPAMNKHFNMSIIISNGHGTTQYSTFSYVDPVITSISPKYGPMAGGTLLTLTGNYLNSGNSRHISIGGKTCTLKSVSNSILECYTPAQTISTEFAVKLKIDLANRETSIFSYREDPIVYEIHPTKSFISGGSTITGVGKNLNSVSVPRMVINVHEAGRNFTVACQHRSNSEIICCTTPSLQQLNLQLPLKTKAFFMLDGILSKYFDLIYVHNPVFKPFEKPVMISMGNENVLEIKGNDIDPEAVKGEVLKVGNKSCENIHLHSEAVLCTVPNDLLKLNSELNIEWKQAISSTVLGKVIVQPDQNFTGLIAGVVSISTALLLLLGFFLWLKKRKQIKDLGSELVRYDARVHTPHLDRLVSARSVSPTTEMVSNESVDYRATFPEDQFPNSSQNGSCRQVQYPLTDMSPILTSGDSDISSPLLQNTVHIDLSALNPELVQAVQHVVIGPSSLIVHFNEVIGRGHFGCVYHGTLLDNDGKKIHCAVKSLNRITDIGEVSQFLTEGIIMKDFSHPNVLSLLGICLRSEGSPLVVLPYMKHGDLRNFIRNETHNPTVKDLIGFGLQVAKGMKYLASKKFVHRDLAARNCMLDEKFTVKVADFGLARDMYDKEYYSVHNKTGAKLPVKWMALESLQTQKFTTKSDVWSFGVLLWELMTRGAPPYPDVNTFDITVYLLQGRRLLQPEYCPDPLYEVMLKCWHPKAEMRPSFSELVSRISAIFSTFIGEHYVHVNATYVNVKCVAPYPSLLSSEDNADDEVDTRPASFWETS
For experiment [5], the target named is T1, Receptor-type tyrosine-protein kinase FLT3 (Homo sapiens, UniProt P36888).
T1 sequence (P36888 whole entry): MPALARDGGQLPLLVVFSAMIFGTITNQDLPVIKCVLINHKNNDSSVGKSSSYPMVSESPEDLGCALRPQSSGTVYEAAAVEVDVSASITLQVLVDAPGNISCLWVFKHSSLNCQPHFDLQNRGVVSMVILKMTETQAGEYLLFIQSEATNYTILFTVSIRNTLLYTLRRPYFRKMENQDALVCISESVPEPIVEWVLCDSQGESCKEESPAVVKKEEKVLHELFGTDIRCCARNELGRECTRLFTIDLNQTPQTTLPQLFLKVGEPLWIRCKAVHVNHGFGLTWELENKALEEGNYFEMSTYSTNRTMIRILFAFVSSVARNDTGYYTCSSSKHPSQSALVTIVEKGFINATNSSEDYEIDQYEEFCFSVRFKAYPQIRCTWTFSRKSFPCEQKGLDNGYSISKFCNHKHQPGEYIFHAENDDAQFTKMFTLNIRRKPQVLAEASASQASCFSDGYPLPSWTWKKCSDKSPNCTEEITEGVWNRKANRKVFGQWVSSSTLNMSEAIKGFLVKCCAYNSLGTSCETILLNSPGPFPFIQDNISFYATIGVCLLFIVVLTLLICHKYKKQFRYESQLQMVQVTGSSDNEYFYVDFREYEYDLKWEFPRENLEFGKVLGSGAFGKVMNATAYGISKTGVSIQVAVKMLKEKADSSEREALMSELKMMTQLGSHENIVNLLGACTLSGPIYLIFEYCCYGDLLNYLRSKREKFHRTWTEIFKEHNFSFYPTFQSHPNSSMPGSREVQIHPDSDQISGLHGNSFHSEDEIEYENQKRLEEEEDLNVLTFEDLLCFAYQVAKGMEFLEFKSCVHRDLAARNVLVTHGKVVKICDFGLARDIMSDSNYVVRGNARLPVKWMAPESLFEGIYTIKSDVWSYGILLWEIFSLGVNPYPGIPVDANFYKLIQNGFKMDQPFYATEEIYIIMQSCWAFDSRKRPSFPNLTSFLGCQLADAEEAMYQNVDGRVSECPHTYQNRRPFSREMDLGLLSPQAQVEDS
The experiment can be described thus: Inhibition of FLT3 (unknown origin) after 30 mins using poly (Glu,Tyr)4:1 substrate.

In experiment [6] the target is Mast/stem cell growth factor receptor Kit (Homo sapiens, UniProt P10721). In words: Inhibition of c-KIT (unknown origin) after 30 mins using poly (Glu,Tyr)4:1 substrate.
Experiment [7] has as its target Vascular endothelial growth factor receptor 2 (Homo sapiens, UniProt P35968). The experiment can be described thus: Inhibition of VEGFR2 (unknown origin) after 30 mins using poly (Glu,Tyr)4:1 substrate.
Experiment [8] concerns the target Platelet-derived growth factor receptor alpha (Homo sapiens, UniProt P16234). The experiment can be described thus: Inhibition of PDGFRalpha (unknown origin) after 30 mins using poly (Glu,Tyr)4:1 substrate.

From ChEMBL document CHEMBL3352619, “Design, synthesis and biological evaluation of novel 6,7-disubstituted-4-phenoxyquinoline derivatives bearing 4-oxo-3,4-dihydrophthalazine-1-carboxamide moieties as c-Met kinase inhibitors” (Bioorg Med Chem, 2014) come the findings set out here.

Vascular endothelial growth factor receptor 2, sequence (P35968 whole entry): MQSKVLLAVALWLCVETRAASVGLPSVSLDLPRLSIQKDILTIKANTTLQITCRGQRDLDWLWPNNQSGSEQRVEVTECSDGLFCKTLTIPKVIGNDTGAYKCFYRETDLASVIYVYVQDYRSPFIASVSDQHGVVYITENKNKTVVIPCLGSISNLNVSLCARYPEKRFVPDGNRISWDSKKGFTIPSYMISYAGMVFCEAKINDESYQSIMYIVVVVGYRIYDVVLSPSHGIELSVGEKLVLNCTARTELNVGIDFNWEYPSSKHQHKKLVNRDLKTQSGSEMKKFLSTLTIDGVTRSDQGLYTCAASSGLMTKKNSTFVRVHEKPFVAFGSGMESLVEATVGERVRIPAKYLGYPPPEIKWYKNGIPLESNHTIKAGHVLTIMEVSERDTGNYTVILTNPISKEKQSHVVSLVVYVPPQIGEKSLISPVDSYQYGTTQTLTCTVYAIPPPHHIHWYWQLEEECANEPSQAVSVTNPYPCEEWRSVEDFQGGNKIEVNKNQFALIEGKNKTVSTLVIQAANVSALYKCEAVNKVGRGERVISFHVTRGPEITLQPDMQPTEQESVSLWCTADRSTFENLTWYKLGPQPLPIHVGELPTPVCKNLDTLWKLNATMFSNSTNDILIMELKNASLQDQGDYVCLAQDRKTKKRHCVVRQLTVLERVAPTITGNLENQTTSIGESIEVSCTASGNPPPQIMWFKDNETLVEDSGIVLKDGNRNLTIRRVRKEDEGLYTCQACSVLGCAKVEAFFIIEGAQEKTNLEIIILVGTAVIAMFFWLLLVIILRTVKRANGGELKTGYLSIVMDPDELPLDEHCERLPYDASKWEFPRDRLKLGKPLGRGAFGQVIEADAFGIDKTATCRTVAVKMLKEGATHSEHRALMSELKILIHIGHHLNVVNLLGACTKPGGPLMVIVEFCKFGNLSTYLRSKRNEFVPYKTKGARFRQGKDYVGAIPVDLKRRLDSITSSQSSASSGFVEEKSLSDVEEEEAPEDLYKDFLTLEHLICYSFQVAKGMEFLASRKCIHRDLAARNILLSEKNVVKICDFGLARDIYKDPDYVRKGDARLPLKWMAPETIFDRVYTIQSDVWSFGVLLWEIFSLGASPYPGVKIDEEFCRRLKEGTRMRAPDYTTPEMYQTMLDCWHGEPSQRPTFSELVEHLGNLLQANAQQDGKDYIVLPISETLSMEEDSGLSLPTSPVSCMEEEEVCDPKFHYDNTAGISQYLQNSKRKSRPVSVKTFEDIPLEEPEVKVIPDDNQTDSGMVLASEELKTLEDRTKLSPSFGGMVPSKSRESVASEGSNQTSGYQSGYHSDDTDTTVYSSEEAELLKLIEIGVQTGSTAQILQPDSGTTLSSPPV
Platelet-derived growth factor receptor alpha, sequence (P16234 whole entry): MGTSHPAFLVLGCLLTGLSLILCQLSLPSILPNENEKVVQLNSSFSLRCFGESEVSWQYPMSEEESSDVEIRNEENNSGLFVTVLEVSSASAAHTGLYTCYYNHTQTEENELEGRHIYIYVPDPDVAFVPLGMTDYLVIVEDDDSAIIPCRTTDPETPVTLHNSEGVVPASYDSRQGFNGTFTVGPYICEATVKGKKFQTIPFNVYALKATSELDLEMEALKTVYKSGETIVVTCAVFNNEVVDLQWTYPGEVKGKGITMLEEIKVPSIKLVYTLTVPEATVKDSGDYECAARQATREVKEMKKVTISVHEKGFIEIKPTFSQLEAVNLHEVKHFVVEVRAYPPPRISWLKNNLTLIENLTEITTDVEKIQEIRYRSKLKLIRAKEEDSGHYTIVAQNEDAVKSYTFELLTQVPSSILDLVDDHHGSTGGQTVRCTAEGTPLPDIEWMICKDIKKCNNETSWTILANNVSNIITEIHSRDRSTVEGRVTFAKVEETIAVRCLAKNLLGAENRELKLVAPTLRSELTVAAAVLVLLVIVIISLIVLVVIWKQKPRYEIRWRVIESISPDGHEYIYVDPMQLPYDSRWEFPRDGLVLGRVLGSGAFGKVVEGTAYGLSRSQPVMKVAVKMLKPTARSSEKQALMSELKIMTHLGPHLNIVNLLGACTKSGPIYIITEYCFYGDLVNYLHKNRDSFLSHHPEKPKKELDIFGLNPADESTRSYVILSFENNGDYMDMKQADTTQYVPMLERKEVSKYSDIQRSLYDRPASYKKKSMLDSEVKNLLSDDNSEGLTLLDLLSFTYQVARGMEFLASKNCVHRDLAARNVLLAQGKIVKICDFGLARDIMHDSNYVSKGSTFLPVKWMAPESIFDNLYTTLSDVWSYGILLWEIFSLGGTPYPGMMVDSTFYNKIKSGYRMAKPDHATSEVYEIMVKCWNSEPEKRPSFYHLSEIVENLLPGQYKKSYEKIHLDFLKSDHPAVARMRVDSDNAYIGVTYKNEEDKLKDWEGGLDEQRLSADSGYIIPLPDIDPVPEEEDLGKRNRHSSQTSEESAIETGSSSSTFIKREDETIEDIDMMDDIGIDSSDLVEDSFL
Description for MDA-MB-231: Cytotoxicity against human MDA-MB-231 cells after 72 hrs by MTT assay

As for `COc1cc2c(Oc3ccc(NC(=O)c4nn(-c5ccc(F)cc5)c(=O)c5ccccc45)cc3F)ccnc2cc1OCCCN1CCOCC1`, the IC50 in experiment [1] is 100 nM; in the experiment on HT-29, 260 nM; in experiment [2], 90 nM; in the experiment with MDA-MB-231, 670 nM.

`COc1cc2c(Oc3ccc(NC(=O)c4nn(-c5ccc([N+](=O)[O-])cc5)c(=O)c5ccccc45)cc3F)ccnc2cc1OCCCN1CCOCC1`: the IC50 in experiment [1] amounted to 1890 nM; in the experiment with HT-29 it was 2520 nM; in experiment [2], 1940 nM; in the experiment on MDA-MB-231, 3480 nM.

Regarding `COc1cc2c(Oc3ccc(NC(=O)c4nn(-c5ccccc5)c(=O)c5ccccc45)cc3F)ccnc2cc1OCCCN1CCCCC1`, the IC50 in experiment [1] was 650 nM; with HT-29, 1310 nM; in experiment [2], 590 nM; with MDA-MB-231, 1880 nM.

With `COc1cc2c(Oc3ccc(NC(=O)c4nn(-c5ccc(Br)cc5)c(=O)c5ccccc45)cc3F)ccnc2cc1OCCCN1CCCC1`, the IC50 in [1] was 180 nM; in the experiment on HT-29 it was 670 nM; in experiment [2], 230 nM; in the experiment on MDA-MB-231, 1160 nM.

On to `COc1cc2c(Oc3ccc(NC(=O)c4nn(-c5ccccc5)c(=O)c5ccccc45)cc3F)ccnc2cc1OCCCN1CCC(C)CC1`, for which the IC50 is 550 nM in experiment [1], 1040 nM in the experiment with HT-29, 580 nM in [2] and 1480 nM in the experiment on MDA-MB-231.

Regarding `COc1cc2c(Oc3ccc(NC(=O)c4nn(-c5ccc(F)cc5)c(=O)c5ccccc45)cc3F)ccnc2cc1OCCCN1CCCC1`, the IC50 in [1] was 55 nM; in the experiment with HT-29, 130 nM; in [3], over 10000 nM; in [4], 1.63 nM; in [2] it was 71 nM; in [5] it was 3.49 nM. In addition, the IC50 in the experiment on MDA-MB-231 came to 430 nM; in experiment [6], 2.17 nM; in experiment [7], 70.4 nM; in experiment [8] it was 15.7 nM.

Take `COc1ccc(-n2nc(C(=O)Nc3ccc(Oc4ccnc5cc(OCCCN6CCOCC6)c(OC)cc45)c(F)c3)c3ccccc3c2=O)cc1`: the IC50 was 1240 nM in experiment [1], 3360 nM in the experiment on HT-29, 1620 nM in [2] and 3980 nM in the experiment with MDA-MB-231.

On to `COc1ccc(-n2nc(C(=O)Nc3ccc(Oc4ccnc5cc(OCCCN6CCCC6)c(OC)cc45)c(F)c3)c3ccccc3c2=O)cc1`, for which the IC50 in [1] is 1650 nM; in the experiment on HT-29 it was 2360 nM; in [2] it was 1320 nM; with MDA-MB-231, 3450 nM.

For `COc1cc2c(Oc3ccc(NC(=O)c4nn(-c5ccc([N+](=O)[O-])cc5)c(=O)c5ccccc45)cc3F)ccnc2cc1OCCCN1CCCC1`, the IC50 in [1] came to 1240 nM; in the experiment on HT-29 it was 1760 nM; in experiment [2], 1620 nM; in the experiment with MDA-MB-231 it was 2980 nM.

Take `COc1cc2c(Oc3ccc(NC(=O)c4nn(-c5ccccc5Br)c(=O)c5ccccc45)cc3F)ccnc2cc1OCCCN1CCN(C)CC1`: the IC50 turned out to be 290 nM in experiment [1], 1190 nM in the experiment with HT-29, 400 nM in experiment [2] and 1680 nM in the experiment with MDA-MB-231.

Turning to `COc1cc2c(Oc3ccc(NC(=O)c4nn(-c5ccc(Br)cc5)c(=O)c5ccccc45)cc3F)ccnc2cc1OCCCN1CCC(C)CC1`, the IC50 in experiment [1] is 350 nM; with HT-29, 920 nM; in [2] it was 330 nM; with MDA-MB-231, 1160 nM.

As to `COc1cc2c(Oc3ccc(NC(=O)c4nn(-c5ccc([N+](=O)[O-])cc5)c(=O)c5ccccc45)cc3F)ccnc2cc1OCCCN1CCN(C)CC1`, the IC50 in [1] turned out to be 980 nM; in the experiment with HT-29, 2560 nM; in experiment [2], 1320 nM; in the experiment on MDA-MB-231, 3490 nM.

On to `COc1cc2c(Oc3ccc(NC(=O)c4nn(-c5cccc(F)c5)c(=O)c5ccccc45)cc3F)ccnc2cc1OCCCN1CCC(C)CC1`, for which the 50% inhibitory concentration (IC50) in [1] is 190 nM; in the experiment on HT-29, 500 nM; in experiment [2] it was 220 nM; in the experiment on MDA-MB-231, 860 nM.

In the case of `COc1cc2c(Oc3ccc(NC(=O)c4nn(-c5ccccc5Br)c(=O)c5ccccc45)cc3F)ccnc2cc1OCCCN1CCC(C)CC1`, the IC50 in experiment [1] worked out at 390 nM; in the experiment with HT-29, 950 nM; in experiment [2], 510 nM; in the experiment with MDA-MB-231, 1240 nM.

With `COc1cc2c(Oc3ccc(NC(=O)c4nn(-c5ccc([N+](=O)[O-])cc5)c(=O)c5ccccc45)cc3F)ccnc2cc1OCCCN1CCCCC1`, the IC50 in [1] is 1300 nM; in the experiment on HT-29, 2170 nM; in experiment [2], 1140 nM; in the experiment with MDA-MB-231, 2620 nM.

With `COc1cc2c(Oc3ccc(NC(=O)c4nn(-c5ccccc5F)c(=O)c5ccccc45)cc3F)ccnc2cc1OCCCN1CCC(C)CC1`, the IC50 in experiment [1] stood at 200 nM; in the experiment on HT-29, 510 nM; in experiment [2] it was 260 nM; with MDA-MB-231, 670 nM.

As to `COc1cc2c(Oc3ccc(NC(=O)c4nn(-c5ccc([N+](=O)[O-])cc5)c(=O)c5ccccc45)cc3F)ccnc2cc1OCCCN1CCC(C)CC1`, the IC50 in experiment [1] was 1340 nM; in the experiment on HT-29 it was 2450 nM; in [2], 1150 nM; in the experiment on MDA-MB-231, 4010 nM.

For the compound `COc1cc2c(Oc3ccc(NC(=O)c4nn(-c5ccc(Br)cc5)c(=O)c5ccccc45)cc3F)ccnc2cc1OCCCN1CCOCC1`, the IC50 in experiment [1] stood at 290 nM; with HT-29, 710 nM; in experiment [2], 340 nM; in the experiment on MDA-MB-231, 960 nM.

As for `COc1cc2c(Oc3ccc(NC(=O)c4nn(-c5ccccc5F)c(=O)c5ccccc45)cc3F)ccnc2cc1OCCCN1CCOCC1`, the IC50 was determined as 190 nM in experiment [1], 470 nM with HT-29, 150 nM in experiment [2] and 700 nM in the experiment on MDA-MB-231.
